Laboratory results: ChEMBL document CHEMBL1134194, “Anti-HIV activity of aromatic and heterocyclic thiazolyl thiourea compounds” (Bioorg Med Chem Lett, 2001)
Counter-ions that a name gives are not always drawn.

How the values were obtained:
[1] = Cytotoxic concentration was evaluated against human peripheral blood mononuclear cells (PBMC); type: functional
[2] = system: Human immunodeficiency virus 1; assay: Selectivity index was determined; type: functional
[3] = system: Human immunodeficiency virus 1; assay: Tested for the ability to inhibit the replication of HIV-1 strain HTLV IIIB in human peripheral blood mononuclear cells (PBMC); type: functional, organism-based
[4] = target: Human immunodeficiency virus type 1 reverse transcriptase (Human immunodeficiency virus 1, UniProt Q72547, K103N/Y181C); assay: Inhibitory activity against non-nucleoside reverse transcriptase inhibitors (NNRTI) -resistant HIV-1 strain A17 variant with Y181C plus K103N mutations in RT (reverse transcriptase)

Which results are given for S=C(NCCc1ccccn1)Nc1nccs1?
CC50 [1]: 100 µM; Selectivity index [2]: 100; IC50 [3]: 1 µM

Which results are given for S=C(NCCc1cccs1)Nc1ccc(Br)cn1?
CC50 [1]: > 100 µM; IC50 [4]: 3.3 µM

For Oc1ccc(CCNC(=S)Nc2ccc(Br)cn2)cc1, which CC50 [1] is on record?
Its CC50 is greater than 100 µM.

And the IC50 [4]?
The IC50 was greater than 100 µM.

What about the IC50 [3] of the same compound?
The IC50 was 0.007 µM.

For S=C(NCC12CC3CC(CC(C3)C1)C2)Nc1nccs1, which CC50 [1] is on record?
Its CC50 is 40 µM.

What about the Selectivity index [2] of the same compound?
The Selectivity index was 40000.

And the IC50 [4]?
Its IC50 is 1.3 µM.

And the IC50 [3]?
Its IC50 is less than 0.001 µM.

For Cc1ccnc2c1NC(=O)c1cccnc1N2C1CC1 [NEVIRAPINE], which IC50 [3] is on record?
Its IC50 is 0.034 µM.

What does the source list for Cc1ccc(CC/N=C(\S)Nc2nccs2)cc1?
CC50 [1]: > 100 µM; Selectivity index [2]: 1429; IC50 [4]: > 100 µM; IC50 [3]: 0.07 µM

Which CC50 [1] does the source give for S=C(NCCc1cccs1)Nc1nccs1 here?
The CC50 was 71 µM.

What about the Selectivity index [2] of the same compound?
Its Selectivity index is 71000.

What about the IC50 [3] of the same compound?
The IC50 was less than 0.001 µM.

Which CC50 [1] does the source give for S=C(NCc1ccco1)Nc1nccs1 here?
Its CC50 is greater than 100 µM.

And the Selectivity index [2]?
The Selectivity index was greater than 100000.

What about the IC50 [4] of the same compound?
The IC50 was 0.6 µM.

And the IC50 [3]?
Its IC50 is less than 0.001 µM.

For CCC(NC(=S)Nc1nccs1)c1ccccc1 (stereo unspecified), which IC50 [4] is on record?
The IC50 was 1.5 µM.

For S=C(NCCc1c[nH]c2ccccc12)Nc1nccs1, which CC50 [1] is on record?
Its CC50 is 28 µM.

And the Selectivity index [2]?
The Selectivity index was 28000.

And the IC50 [4]?
The IC50 was 3.7 µM.

What about the IC50 [3] of the same compound?
Its IC50 is less than 0.001 µM.

With S=C(NCCCn1ccnc1)Nc1nccs1 as the compound, how does the CC50 [1] read?
Its CC50 is 35 µM.

What about the Selectivity index [2] of the same compound?
Its Selectivity index is 35000.

What about the IC50 [4] of the same compound?
Its IC50 is greater than 100 µM.

And the IC50 [3]?
The IC50 was less than 0.001 µM.

For S=C(NCCC1=CCCCC1)Nc1nccs1, which IC50 [4] is on record?
The IC50 was greater than 100 µM.

For CC(C)Nc1cccnc1N1CCN(C(=O)c2cc3cc(NS(C)(=O)=O)ccc3[nH]2)CC1 [DELAVIRDINE MESYLATE], which IC50 [3] is on record?
Its IC50 is 0.009 µM.

What does the source list for S=C(NCCOc1ccccc1)Nc1nccs1?
CC50 [1]: > 100 µM; Selectivity index [2]: >100000; IC50 [4]: > 100 µM; IC50 [3]: < 0.001 µM

With S=C(NCCN1CCCCC1)Nc1nccs1 as the compound, how does the IC50 [3] read?
Its IC50 is greater than 100 µM.

With Oc1ccc(CC/N=C(\S)Nc2nccs2)cc1 as the compound, how does the IC50 [3] read?
The IC50 was greater than 100 µM.
